Structures can show the parent of a compound that is named as a salt.

Consider 20 compounds from patent US12180226B2, “Spirotricycle RIPK1 inhibitors and methods of uses thereof” (Merck Sharp & Dohme LLC, priority 2021, dated 2024).

This assay concerns the target RIPK1 (recombinant GST-RIPK1 kinase domain, residues 1-327) (Homo sapiens (Human), UniProt Q13546). Nature of the assay: RIPK1-ADP-Glo Enzymatic Assay. It counts as biochemical. Particulars: ADP-Glo; 25 nM GST-RIPK1, 300 μM ATP; assay lower limit ~25 nM; read-out: RIPK1 V0 Ec50. An outline of the steps: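 Enzyme from baculovirus-infected Sf21 cells, 25 nM final, was pre-incubated 30 min at ambient temperature with compound (ten-point, 1:3 dilution from 100000 nM, 1% DMSO), then reacted 150 min with 300 μM ATP and 3 μM dephosphorylated MBP. ADP was read by luminescence; EC50 from four-parameter fit.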
On the technique in general: In ADP-Glo the light output rises with the ADP produced.

Chain of RIPK1 (recombinant GST-RIPK1 kinase domain, residues 1-327) (Q13546 1-327): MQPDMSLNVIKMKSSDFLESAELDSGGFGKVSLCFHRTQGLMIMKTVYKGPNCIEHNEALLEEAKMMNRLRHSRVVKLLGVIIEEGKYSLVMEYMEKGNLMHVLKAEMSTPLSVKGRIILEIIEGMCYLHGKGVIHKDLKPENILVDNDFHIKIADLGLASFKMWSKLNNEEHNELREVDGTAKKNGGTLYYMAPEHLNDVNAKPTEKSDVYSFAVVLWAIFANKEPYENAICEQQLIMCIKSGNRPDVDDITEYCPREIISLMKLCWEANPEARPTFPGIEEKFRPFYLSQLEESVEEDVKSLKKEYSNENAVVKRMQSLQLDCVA

Take `CC(C)Oc1cc(N2CCC3(CC2)O[C@@H]2CC[C@@H](c4cc(F)cc(F)c4)N2C3=O)ncc1C#N` [Example 4.41, 6-[(5′S,7a′R)-5′-(3,5-difluorophenyl)-3′-oxotetrahydro-1H,3′H-spiro[piperidine-4,2′-pyrrolo[2,1-b] [1,3]oxazol]-1-yl]-4-[(propan-2-yl)oxy]pyridine-3-carbonitrile]: the EC50 is under 25 nM.
For the compound `COc1ccc(F)c(C(=O)N2CCC3(CC2)O[C@@H]2CC[C@@H](c4cc(F)cc(F)c4)N2C3=O)c1` [Example 6.6, (5′S,7a′R)-5′-(3,5-difluorophenyl)-1-(2-fluoro-5-methoxy-benzene-1-carbonyl) tetrahydro-3′H-spiro [piperidine-4,2′-pyrrolo[2,1-b][1,3]oxazol]-3′-one], the EC50 is under 25 nM.
The figure for `COc1ccc(N2CCC3(CC2)O[C@@H]2CC[C@@H](c4ccccc4)N2C3=O)n2ncnc12` [Example 19.8, (5′S,7a′R)-1-(8-methoxy[1,2,4]triazolo [1,5-a]pyridin-5-yl)-5′-phenyltetrahydro-3′H-spiro[piperidine-4,2′-pyrrolo[2,1-b][1,3]oxazol]-3′-one] is 394 nM; for `O=C(Nc1ccccc1)N1CCC2(CC1)O[C@@H]1CC[C@@H](c3cc(F)cc(F)c3)N1C2=O` [Example 12.1, (5′S,7a′R)-5′-(3,5-Difluorophenyl)-3′-oxo-N-phenyltetrahydro-3′H-spiro[piperidine-4,2′-pyrrolo[2,1-b]oxazole]-1-carboxamide] it is 537 nM; for `O=C(c1nc2ccccc2s1)N1CCC2(CC1)O[C@@H]1CC[C@@H](c3cc(F)cc(F)c3)N1C2=O` [Example 6.28, (5′S,7a′R)-1-(1,3-benzothiazole-2-car-bonyl)-5′-(3,5-difluoro-phenyl)tetrahydro-3′H-spiro[piperidine-4,2′-pyrrolo[2,1-b] [1,3]oxazol]-3′-one] it is 30.2 nM.
The figure for `Cc1ccc(C(=O)N2CCC3(CC2)O[C@@H]2CC[C@@H](c4ccccc4)N2C3=O)c(F)c1` [Example 6.152, (5′S,7a′R)-1-(2-fluoro-4-methylbenzene-1-carbonyl)-5′-phenyl-tetrahydro-3′H-spiro [piperidine-4,2′-pyrrolo[2,1-b][1,3]oxazol]-3′-one] is under 25 nM.
Next, `O=C(C1CCCC1)N1CCC2(CC1)O[C@@H]1CC[C@@H](c3cc(F)cc(F)c3)N1C2=O` [Example 5.32, (5′S,7a′R)-1-(cyclopentane-carbonyl)-5′-(3,5-difluoro-phenyl)tetrahydro-3′H-spiro[piperidine-4,2′-pyrrolo[2,1-b]oxazol]-3′-one]: 409 nM; `N#Cc1cc(F)cc([C@@H]2CC[C@H]3OC4(CCN(c5ccnc6c(F)cnn56)CC4)C(=O)N32)c1` [Example 4.121, 3-fluoro-5-[(5′S,7a′R)-1-(3-fluoropyrazolo[1,5-a]pyrimidin-7-yl)-3′-oxotetrahydro-3′H-spiro[piperidine-4,2′-pyrrolo[2,1-b] [1,3]oxazol]-5′-yl]benzonitrile]: under 25 nM.
`O=C(c1cnc2snnc2c1)N1CCC2(CC1)O[C@@H]1CC[C@@H](c3cc(F)cc(F)c3)N1C2=O` [Example 6.46, (5′S,7a′R)-5′-(3,5-difluorophenyl)-1-([1,2,3]thiadiazolo-[5,4-b]pyridine-6-carbonyl)tetrahydro-3′H-spiro[piperidine-4,2′-pyrrolo[2,1-b] [1,3]oxazol]-3′-one]: the EC50 stood at 211 nM.
The figure for `O=C(c1nnc(-c2ccccn2)s1)N1CCC2(CC1)O[C@@H]1CC[C@@H](c3cc(F)cc(F)c3)N1C2=O` [Example 6.45, (5′S,7a′R)-5′-(3,5-difluorophenyl)-1-[5-(pyridin-2-yl)-1,3,4-thiadiazole-2-carbon-yl]tetrahydro-3′H-spiro[piperidine-4,2′-pyrrolo[2,1-b][1,3]oxazol]-3′-one] is 451 nM; for `O=C1N2[C@@H](CC[C@H]2c2ccccc2)OC12CCN(c1ccc(-c3ncco3)c3ccnn13)CC2` [Example 21.22, (5′S,7a′R)-1-[4-(1,3-oxazol-2-yl)pyrazolo[1,5-a]pyridin-7-yl]-5′-phenyltetrahydro-3′H-spiro[piperidine-4,2′-pyrrolo[2,1-b][1,3]oxazol]-3′-one] it is under 25 nM.
Consider `O=C1N2[C@@H](CC[C@H]2c2cc(F)cc(F)c2)OC12CCN(c1ncnc3ccnn13)CC2` [Example 4.128, (5′S,7a′R)-5′-(3,5-difluorophenyl)-1-(pyrazolo[1,5-a] [1,3,5]triazin-4-yl)tetrahydro-3′H-spiro[piperidine-4,2′-pyrrolo[2,1-b] [1,3]oxazol]-3′-one], for which the EC50 is under 25 nM.
Next, `Cn1nc(N2CCC3(CC2)O[C@@H]2CC[C@@H](c4ccccc4)N2C3=O)ccc1=O` [Example 11.7, (5′S,7a′R)-1-(1-methyl-6-oxo-1,6-dihydropyridazin-3-yl)-5′-phenyltetrahydro-3′H-spiro[piperidine-4,2′-pyrrolo[2,1-b][1,3]oxazol]-3′-one]: 91.3 nM; `C#Cc1cccc(C(=O)N2CCC3(CC2)O[C@@H]2CC[C@@H](c4cccc(F)c4)N2C3=O)c1` [Example 6.123, (5′S,7a′R)-1-(3-ethynylbenzene-1-carbonyl)-5′-(3-fluoro-phenyl)tetrahydro-3′H-spiro[piperidine-4,2′-pyrrolo[2,1-b][1,3]oxazol]-3-one]: under 25 nM; `O=C(c1coc2ccccc12)N1CCC2(CC1)O[C@@H]1CC[C@@H](c3cc(F)cc(F)c3)N1C2=O` [Example 5.70]: under 25 nM.
With `O=C1N2C(=NC13CCN(c1cc(F)ccn1)CC3)CC[C@H]2c1cc(F)cc(F)c1` [Example 11.1], the EC50 came to 885 nM.
The figure for `C#Cc1ccccc1C(=O)N1CCC2(CC1)O[C@@H]1CC[C@@H](c3cc(F)cc(F)c3)N1C2=O` [Example 5.23, (5′S,7a′R)-5′-(3,5-difluoro-phenyl)-1-(2-ethynyl-benzoyl)tetrahydro-3′H-spiro[piperidine-4,2′-pyrrolo[2,1-b]oxazol]-3′-one] is 143 nM.
The figure for `O=C1N2[C@@H](CC[C@H]2c2cc(F)cc(F)c2)OC12CCN(c1ccnn3ccnc13)CC2` [Example 13.3, (5′S,7a′R)-5′-(3,5-difluorophenyl)-1-(imidazo[1,2-b]pyridazin-8-yl)tetrahydro-3′H-spiro[piperidine-4,2′-pyrrolo[2,1-b]oxazol]-3′-one, TFA salt] is under 25 nM.
With `Cc1ocnc1C(=O)N1CCC2(CC1)O[C@@H]1CC[C@@H](c3ccccc3)N1C2=O` [Example 6.146, (5′S,7a′R)-1-(5-methyl-1,3-oxazole-4-carbonyl)-5′-phenyl-tetrahydro-3′H-spiro [piperidine-4,2′-pyrrolo[2,1-b][1,3]oxazol]-3′-one], the EC50 is 34.9 nM.
The figure for `N#Cc1ccc(N2CCC3(CC2)O[C@@H]2CC[C@@H](c4ccccc4F)N2C3=O)n2nccc12` [Example 4.156, 7-[(5′S,7a′R)-5′-(2-fluorophenyl)-3′-oxotetrahydro-1H,3′H-spiro[piperidine-4,2′-pyrrolo[2,1-b] [1,3]oxazol]-1-yl]pyrazolo[1,5-a] pyridine-4-carbonitrile] is under 25 nM.

The term EC50 denotes the midpoint of the concentration-response curve.
